Molecules are shown by their SMILES. Counter-ions that a name gives are not always drawn.

The melting point is the temperature of the solid-liquid transition.

`CC[C@H](NC(=O)c1c(CN2CCC3(CC2)C(=O)NCN3c2ccccc2)c(-c2ccccc2)nc2ccccc12)c1ccccc1` registered a melting point of 242 to 245 °C.
As for `CC[C@H](NC(=O)c1c(CN2CCC(n3c(=O)[nH]c4ccccc43)CC2)c(-c2ccccc2)nc2ccccc12)c1ccccc1`, the figure is 195 to 197 °C; as for `C[C@H](NC(=O)c1c(CN2CCC(n3c(=O)[nH]c4ccccc43)CC2)c(-c2ccccc2)nc2ccccc12)C1CCCCC1`, 204 to 206 °C; as for `C[C@H](NC(=O)c1c(CN2CCN(C(=O)Cc3c[nH]cn3)CC2)c(-c2ccccc2)nc2ccccc12)C1CCCCC1`, 178 to 210 °C.
As for `C[C@H](NC(=O)c1c(CN2CCN(Cc3ccccc3)CC2)c(-c2ccccc2)nc2ccccc12)C1CCCCC1` (as salt: HCl), the figure is 176 to 179 °C; as for `CC[C@H](NC(=O)c1c(CN2CCN(C3CCCCC3)CC2)c(-c2ccccc2)nc2ccccc12)c1ccccc1` (as salt: HCl) [Example 1, 3-(4-Cyclohexyl-piperazin-1-ylmethyl)-2-phenyl-quinoline-4-carboxylic acid ((S)-1-phenyl-propyl)-amide], 261 to 263 °C; as for `C[C@H](NC(=O)c1c(CN2CCN(CCc3ccccc3)CC2)c(-c2ccccc2)nc2ccccc12)C1CCCCC1` (as salt: HCl) [Example 5, 3-(4-Phenethyl-piperazin-1-ylmethyl)-2-phenyl-quinoline-4-carboxylic acid ((S)-1-cyclohexyl-ethyl)-amide], 168 to 171 °C.
As for `CC[C@H](NC(=O)c1c(CN2CCC(N3CCCCC3)CC2)c(-c2ccccc2)nc2ccccc12)c1ccccc1` (as salt: HCl) [Example 14, 3-[1,4′]Bipiperidinyl-1′-ylmethyl-2-phenyl-quinoline-4-carboxylic acid ((S)-1-phenyl-propyl)-amide], the figure is 182 to 185 °C; as for `C[C@H](NC(=O)c1c(CN2CCC(N3CCCCC3)CC2)c(-c2ccccc2)nc2ccccc12)c1ccccc1` (as salt: HCl) [Example 30, 3-[1,4′]Bipiperidinyl-1′-ylmethyl-2-phenyl-quinoline-4-carboxylic acid ((S)-1-phenyl-ethyl)-amide], 208 to 210 °C; as for `CCN1CCN(Cc2c(-c3ccccc3)nc3ccccc3c2C(=O)N[C@@H](C)C2CCCCC2)CC1` (as salt: HCl) [Example 37, 3-(4-Ethyl-piperazin-1-ylmethyl)-2-phenyl-quinoline-4-carboxylic acid ((S)-1-cyclohexyl-ethyl)-amide], 188 to 190 °C.
`CC[C@H](NC(=O)c1c(CN2CCN3CCCC3C2)c(-c2ccccc2)nc2ccccc12)c1ccccc1` (stereo partly drawn) (as salt: HCl) [Example 49, 3-(Hexahydro-pyrrolo[1,2-a]pyrazin-2-ylmethyl)-2-phenyl-quinoline-4-carboxylic acid ((S)-1-phenyl-propyl)-amide] gave a melting point of 196 to 198 °C.
Next, `CC(C)N1CCN(Cc2c(-c3ccccc3)nc3ccccc3c2C(=O)N[C@@H](C)C2CCCCC2)CC1` (as salt: hydrochloride) [Example 4, 3-(4-Isopropyl-piperazin-1-ylmethyl)-2-phenyl-quinoline-4-carboxylic acid ((S)-1-cyclohexyl-ethyl)-amide]: 180 to 183 °C; `C[C@H](NC(=O)c1c(CN2CCC(N3CCCCC3)CC2)c(-c2ccccc2)nc2ccccc12)C1CCCCC1` (as salt: hydrochloride) [Example 13, 3-[1,4′]Bipiperidinyl-1′-ylmethyl-2-phenyl-quinoline-4-carboxylic acid ((S)-1-cyclohexyl-ethyl)-amide]: 180 to 184 °C.
Next, `CC[C@H](NC(=O)c1c(CN2CCC(N3CCCCC3)CC2)c(-c2ccccc2)nc2cc(OC)ccc12)c1ccccc1` (as salt: hydrochloride) [Example 67, 3-[1,4′]Bipiperidinyl-1′-ylmethyl-7-methoxy-2-phenyl-quinoline-4-carboxylic acid ((S)-1-phenyl-propyl)-amide]: 208 to 210 °C.
Regarding `CC[C@H](NC(=O)c1c(CN2CCC(c3ccccc3)CC2)c(-c2ccccc2)nc2ccccc12)c1ccccc1` [Example 2, 2-Phenyl-3-(4-phenyl-piperidin-1-ylmethyl)-quinoline-4-carboxylic acid ((S)-1-phenyl-propyl)-amide], the melting point lay in the range of 90 to 95 °C.
In the case of `CC[C@H](NC(=O)c1c(C(c2ccccc2)(N2CCCCC2)N(C)C(C)=O)c(-c2ccccc2)nc2ccccc12)c1ccccc1` (stereo partly drawn) [Example 11, 3-[(Acetyl-methyl-amino)-phenyl-piperidin-1-ylmethyl]-2-phenyl-quinoline-4-carboxylic acid ((S)-1-phenyl-propyl)-amide], the melting point is 100 °C (dec.).
As for `CC[C@H](NC(=O)c1c(CN2CCN(CCOCCO)CC2)c(-c2ccccc2)nc2ccccc12)c1ccccc1` [Example 15, 3-{4-[2-(2-Hydroxy-ethoxy)-ethyl]-piperazin-1-ylmethyl}-2-phenyl-quinoline-4-carboxylic acid ((S)-1-phenyl-propyl)-amide], the figure is 158 to 160 °C.
As for `COCCN1CCN(Cc2c(-c3ccccc3)nc3ccccc3c2C(=O)N[C@@H](C)C2CCCCC2)CC1` [Example 17, 3-[4-(2-Methoxy-ethyl)-piperazin-1-ylmethyl]-2-phenyl-quinoline-4-carboxylic acid ((S)-1-cyclohexyl-ethyl)-amide], the figure is 113 to 115 °C.
As for `CC[C@H](NC(=O)c1c(CN2CCC(N3CCC(O)CC3)CC2)c(-c2ccccc2)nc2ccccc12)c1ccccc1` [Example 18, 3-(4-Hydroxy-[1,4′]bipiperidinyl-1′-ylmethyl)-2-phenyl-quinoline-4-carboxylic acid ((S)-1-phenyl-propyl)-amide], the figure is 166 to 168 °C.
`CC[C@H](NC(=O)c1c(CN2CCC(N3CCOCC3)CC2)c(-c2ccccc2)nc2ccccc12)c1ccccc1` [Example 19, 3-(4-Morpholin-4-yl-piperidin-1-ylmethyl)-2-phenyl-quinoline-4-carboxylic acid ((S)-1-phenyl-propyl)-amide] gave a melting point of 157 to 165 °C.
Next, `C[C@H](NC(=O)c1c(CN2CCN(CCOCCO)CC2)c(-c2ccccc2)nc2ccccc12)C1CCCCC1` [Example 20, 3-{4-[2-(2-Hydroxy-ethoxy)-ethyl]-piperazin-1-ylmethyl}-2-phenyl-quinoline-4-carboxylic acid ((S)-1-cyclohexyl-ethyl)-amide]: 126 to 128 °C; `CC[C@H](NC(=O)c1c(CN2CCN(C(C)=O)CC2)c(-c2ccccc2)nc2ccccc12)c1ccccc1` [Example 23, 3-(4-Acetyl-piperazin-1-ylmethyl)-2-phenyl-quinoline-4-carboxylic acid ((S)-1-phenyl-propyl)-amide]: 117 to 119 °C; `C[C@H](NC(=O)c1c(CN2CCN(C(=O)c3ccccc3)CC2)c(-c2ccccc2)nc2ccccc12)C1CCCCC1` [Example 24, 2-Phenyl-3-[4-(1-phenyl-methanoyl)-piperazin-1-ylmethyl]-quinoline-4-carboxylic acid ((S)-1-cyclohexyl-ethyl)-amide]: 150 to 152 °C.
Next, `CC(C)C(=O)N1CCN(Cc2c(-c3ccccc3)nc3ccccc3c2C(=O)N[C@@H](C)C2CCCCC2)CC1` [Example 25, 3-[4-(2-Methyl-propanoyl)-piperazin-1-ylmethyl]-2-phenyl-quinoline-4-carboxylic acid ((S)-1-cyclohexyl-ethyl)-amide]: 149 to 151 °C.
In the case of `CC[C@H](NC(=O)c1c(CN2CCN(CCO)CC2)c(-c2ccccc2)nc2ccccc12)c1ccccc1` [Example 28, 3-[4-(2-Hydroxy-ethyl)-piperazin-1-ylmethyl]-2-phenyl-quinoline-4-carboxylic acid ((S)-1-phenyl-propyl)-amide], the melting point lay in the range of 142 to 144 °C.
As for `C[C@H](NC(=O)c1c(CN2CCN(CCO)CC2)c(-c2ccccc2)nc2ccccc12)C1CCCCC1` [Example 29, 3-[4-(2-Hydroxy-ethyl)-piperazin-1-ylmethyl]-2-phenyl-quinoline-4-carboxylic acid ((S)-1-cyclohexyl-ethyl)-amide], the figure is 95 to 105 °C; as for `CC[C@H](NC(=O)c1c(CN2CCN(C(=O)c3ccccc3)CC2)c(-c2ccccc2)nc2ccccc12)c1ccccc1` [Example 31, 2-Phenyl-3-[4-(1-phenyl-methanoyl)-piperazin-1-ylmethyl]-quinoline-4-carboxylic acid ((S)-1-phenyl-propyl)-amide], 180 to 182 °C.
As for `C[C@H](NC(=O)c1c(CN2CCC(C(N)=O)CC2)c(-c2ccccc2)nc2ccccc12)C1CCCCC1` [Example 36, 3-(4-Carbamoyl-piperidin-1-ylmethyl)-2-phenyl-quinoline-4-carboxylic acid ((S)-1-cyclohexyl-ethyl)-amide], the figure is 219 to 221 °C; as for `C[C@H](NC(=O)c1c(CN2CCC(N3CCOCC3)CC2)c(-c2ccccc2)nc2ccccc12)C1CCCCC1` [Example 42, 3-(4-Morpholin-4-yl-piperidin-1-ylmethyl)-2-phenyl-quinoline-4-carboxylic acid ((S)-1-cyclohexyl-ethyl)-amide], 135 to 137 °C; as for `C[C@H](NC(=O)c1c(CN2CCC(N3CCC(O)CC3)CC2)c(-c2ccccc2)nc2ccccc12)C1CCCCC1` [Example 43, 3-(4-Hydroxy-[1,4′]bipiperidinyl-1′-ylmethyl)-2-phenyl-quinoline-4-carboxylic acid ((S)-1-cyclohexyl-ethyl)-amide], 150 to 160 °C.
Next, `C[C@H](NC(=O)c1c(CN2CCN(C(=O)CN(C)C)CC2)c(-c2ccccc2)nc2ccccc12)C1CCCCC1` [Example 46, 3-[4-(2-Dimethylamino-ethanoyl)-piperazin-1-ylmethyl]-2-phenyl-quinoline-4-carboxylic acid ((S)-1-cyclohexyl-ethyl)-amide]: 173 to 175 °C; `CCN(CC)CCC(=O)N1CCN(Cc2c(-c3ccccc3)nc3ccccc3c2C(=O)N[C@@H](C)C2CCCCC2)CC1` [Example 47, 3-[4-(3-Diethylamino-propanoyl)-piperazin-1-ylmethyl]-2-phenyl-quinoline-4-carboxylic acid ((S)-1-cyclohexyl-ethyl)-amide]: 104 to 106 °C.

Values taken from patent publication US6780875B2, “Quinoline-4-carboxamide derivatives as NK-3 and NK-2 receptor antagonists” (SmithKline Beecham S.p.A., priority 1998, dated 2004).
